Laboratory results published in patent US20260248765A1, “TIME RELEASE SLEEP AID SYSTEM” (NightWise, LLC, priority 2017, published 2026).

experiment: Release time based on dissolution times of each ingredient in water; assay type: physicochemical; conditions: soft chew composition of Table 2
Experimental: The release time was determined based on dissolution times of each ingredient in water.

Row | SMILES | Release Time
1 | CN1c2c(nc(N)[nH]c2=O)NC[C@@H]1CNc1ccc(C(=O)N[C@@H](CCC(=O)O)C(=O)O)cc1.N[C@H]1C(O)O[C@H](CO)[C@@H](O)[C@@H]1O [QUATREFOLIC ™, (6S)-5-methyltetrahydrofolic acid, glucosamine salt] | 0 min
2 | N[C@@H](Cc1c[nH]c2ccc(O)cc12)C(=O)O [5-Hydroxytryptophan] | 0 min
3 | C/C1=C2/[N-][C@H]([C@H](CC(N)=O)[C@@]2(C)CCC(=O)NC[C@@H](C)OP(=O)([O-])O[C@H]2[C@@H](O)[C@@H](n3cnc4cc(C)c(C)cc43)O[C@@H]2CO)[C@]2(C)N=C(/C(C)=C3N=C(/C=C4N=C1[C@@H](CCC(N)=O)C\4(C)C)[C@@H](CCC(N)=O)[C@]\3(C)CC(N)=O)[C@@H](CCC(N)=O)[C@]2(C)CC(N)=O.[CH3-].[Co+3] [Vitamin B12, methylcobalamin] | 0 min
4 | NCCCC(=O)O [PHARMAGABA ™] | 0 min
5 | Cc1cc2nc3c(=O)[nH]c(=O)nc-3n(C[C@H](O)[C@H](O)[C@H](O)COP(=O)([O-])O)c2cc1C.[Na+] [Riboflavin 5′-Phosphate Sodium] | 0 min
6 | NCC(=O)[O-].NCC(=O)[O-].[Mg+2] [Magnesium Glycinate] | 0 min
7 | Cc1ncc(COP(=O)(O)O)c(C=O)c1O.O [Vitamin B6, pyridoxal-5-phosphate monohydrate] | 0 min
8 | COc1ccc2[nH]cc(CCNC(C)=O)c2c1 [Melatonin, reference compound] | 0 min
